Data published in ChEMBL document CHEMBL3272011, “Aminobenzoic acid diuretics. 9. 3,4-Disubstituted 5-acylaminobenzoic acids and related compounds” (1977).

Experiments:
Canis familiaris [1] = assay: Diuretic effect in mongrel dog assessed as urinary excretion of water at 0.25 mg/kg, iv after 3 hrs (reference value: 0.93 +/- 0.35 ml/kg); type: functional, Canis lupus familiaris, Urine
Canis familiaris [2] = assay: Diuretic effect in mongrel dog assessed as urinary excretion of water at 0.1 mg/kg, iv after 3 hrs (reference value: 0.93 +/- 0.35 ml/kg); type: functional, Canis lupus familiaris, Urine
Canis familiaris [3] = assay: Diuretic effect in mongrel dog assessed as urinary excretion of Na+ at 0.25 mg/kg, iv after 3 hrs (reference value: 0.10 +/- 0.02 mequiv/kg); type: functional, Canis lupus familiaris, Urine
Canis familiaris [4] = assay: Diuretic effect in mongrel dog assessed as urinary excretion of Na+ at 0.1 mg/kg, iv after 3 hrs (reference value: 0.10 +/- 0.02 mequiv/kg); type: functional, Canis lupus familiaris, Urine
Canis familiaris [5] = assay: Diuretic effect in mongrel dog assessed as urinary excretion of K+ at 0.25 mg/kg, iv after 3 hrs (reference value: 0.16 +/- 0.01 mequiv/kg); type: functional, Canis lupus familiaris, Urine
Canis familiaris [6] = assay: Diuretic effect in mongrel dog assessed as urinary excretion of K+ at 0.1 mg/kg, iv after 3 hrs (reference value: 0.16 +/- 0.01 mequiv/kg); type: functional, Canis lupus familiaris, Urine
Canis familiaris [7] = assay: Diuretic effect in mongrel dog assessed as urinary excretion of Cl- at 0.25 mg/kg, iv after 3 hrs (reference value: 0.08 +/- 0.02 mequiv/kg); type: functional, Canis lupus familiaris, Urine
Canis familiaris [8] = assay: Diuretic effect in mongrel dog assessed as urinary excretion of Cl- at 0.1 mg/kg, iv after 3 hrs (reference value: 0.08 +/- 0.02 mequiv/kg); type: functional, Canis lupus familiaris, Urine
Canis familiaris [9] = assay: Diuretic effect in mongrel dog assessed as urinary excretion of Na+ at 0.01 mg/kg, po after 3 hrs (reference value: 0.10 +/- 0.02 mequiv/kg); type: functional, Canis lupus familiaris, Urine
Canis familiaris [10] = assay: Diuretic effect in mongrel dog assessed as urinary excretion of K+ at 0.01 mg/kg, po after 3 hrs (reference value: 0.16 +/- 0.01 mequiv/kg); type: functional, Canis lupus familiaris, Urine
Canis familiaris [11] = assay: Diuretic effect in mongrel dog assessed as urinary excretion of Cl- at 0.01 mg/kg, po after 3 hrs (reference value: 0.08 +/- 0.02 mequiv/kg); type: functional, Canis lupus familiaris, Urine
Canis familiaris [12] = assay: Diuretic effect in mongrel dog assessed as urinary excretion of water at 0.01 mg/kg, iv after 3 hrs (reference value: 0.93 +/- 0.35 ml/kg)
Canis familiaris [13] = assay: Diuretic effect in mongrel dog assessed as urinary excretion of water at 1 mg/kg, iv after 3 hrs (reference value: 0.93 +/- 0.35 ml/kg); type: functional, Canis lupus familiaris, Urine
Canis familiaris [14] = assay: Diuretic effect in mongrel dog assessed as urinary excretion of water at 5 mg/kg, iv after 3 hrs (reference value: 0.93 +/- 0.35 ml/kg); type: functional, Canis lupus familiaris, Urine
Canis familiaris [15] = assay: Diuretic effect in mongrel dog assessed as urinary excretion of Na+ at 5 mg/kg, po after 3 hrs (reference value: 0.10 +/- 0.02 mequiv/kg); type: functional, Canis lupus familiaris, Urine
Canis familiaris [16] = assay: Diuretic effect in mongrel dog assessed as urinary excretion of Na+ at 1 mg/kg, iv after 3 hrs (reference value: 0.10 +/- 0.02 mequiv/kg); type: functional, Canis lupus familiaris, Urine
Canis familiaris [17] = assay: Diuretic effect in mongrel dog assessed as urinary excretion of Na+ at 5 mg/kg, iv after 3 hrs (reference value: 0.10 +/- 0.02 mequiv/kg); type: functional, Canis lupus familiaris, Urine
Canis familiaris [18] = assay: Diuretic effect in mongrel dog assessed as urinary excretion of Na+ at 1 mg/kg, po after 3 hrs (reference value: 0.10 +/- 0.02 mequiv/kg); type: functional, Canis lupus familiaris, Urine
Canis familiaris [19] = assay: Diuretic effect in mongrel dog assessed as urinary excretion of K+ at 1 mg/kg, iv after 3 hrs (reference value: 0.16 +/- 0.01 mequiv/kg); type: functional, Canis lupus familiaris, Urine
Canis familiaris [20] = assay: Diuretic effect in mongrel dog assessed as urinary excretion of K+ at 5 mg/kg, iv after 3 hrs (reference value: 0.16 +/- 0.01 mequiv/kg); type: functional, Canis lupus familiaris, Urine
Canis familiaris [21] = assay: Diuretic effect in mongrel dog assessed as urinary excretion of Cl- at 1 mg/kg, iv after 3 hrs (reference value: 0.08 +/- 0.02 mequiv/kg); type: functional, Canis lupus familiaris, Urine
Canis familiaris [22] = assay: Diuretic effect in mongrel dog assessed as urinary excretion of Cl- at 5 mg/kg, iv after 3 hrs (reference value: 0.08 +/- 0.02 mequiv/kg); type: functional, Canis lupus familiaris, Urine
Canis familiaris [23] = assay: Diuretic effect in mongrel dog assessed as urinary excretion of water at 1 mg/kg, po after 3 hrs (reference value: 0.93 +/- 0.35 ml/kg); type: functional, Canis lupus familiaris, Urine
Canis familiaris [24] = assay: Diuretic effect in mongrel dog assessed as urinary excretion of water at 5 mg/kg, po after 3 hrs (reference value: 0.93 +/- 0.35 ml/kg); type: functional, Canis lupus familiaris, Urine
Canis familiaris [25] = assay: Diuretic effect in mongrel dog assessed as urinary excretion of water at 1 mg/kg, po after 6 hrs (reference value: 1.73 +/- 0.46 ml/kg); type: functional, Canis lupus familiaris, Urine
Canis familiaris [26] = assay: Diuretic effect in mongrel dog assessed as urinary excretion of water at 0.25 mg/kg, po after 6 hrs (reference value: 1.73 +/- 0.46 ml/kg); type: functional, Canis lupus familiaris, Urine
Canis familiaris [27] = assay: Diuretic effect in mongrel dog assessed as urinary excretion of Na+ at 1 mg/kg, po after 6 hrs (reference value: 0.27 +/- 0.09 mequiv/kg); type: functional, Canis lupus familiaris, Urine
Canis familiaris [28] = assay: Diuretic effect in mongrel dog assessed as urinary excretion of Na+ at 0.25 mg/kg, po after 6 hrs (reference value: 0.27 +/- 0.09 mequiv/kg); type: functional, Canis lupus familiaris, Urine
Canis familiaris [29] = assay: Diuretic effect in mongrel dog assessed as urinary excretion of K+ at 1 mg/kg, po after 3 hrs (reference value: 0.16 +/- 0.01 mequiv/kg); type: functional, Canis lupus familiaris, Urine
Canis familiaris [30] = assay: Diuretic effect in mongrel dog assessed as urinary excretion of K+ at 5 mg/kg, po after 3 hrs (reference value: 0.16 +/- 0.01 mequiv/kg); type: functional, Canis lupus familiaris, Urine
Canis familiaris [31] = assay: Diuretic effect in mongrel dog assessed as urinary excretion of K+ at 1 mg/kg, po after 6 hrs (reference value: 0.24 +/- 0.03 mequiv/kg); type: functional, Canis lupus familiaris, Urine
Canis familiaris [32] = assay: Diuretic effect in mongrel dog assessed as urinary excretion of K+ at 0.25 mg/kg, po after 6 hrs (reference value: 0.24 +/- 0.03 mequiv/kg); type: functional, Canis lupus familiaris, Urine
Canis familiaris [33] = assay: Diuretic effect in mongrel dog assessed as urinary excretion of Cl- at 1 mg/kg, po after 3 hrs (reference value: 0.08 +/- 0.02 mequiv/kg); type: functional, Canis lupus familiaris, Urine
Canis familiaris [34] = assay: Diuretic effect in mongrel dog assessed as urinary excretion of Cl- at 5 mg/kg, po after 3 hrs (reference value: 0.08 +/- 0.02 mequiv/kg); type: functional, Canis lupus familiaris, Urine
Canis familiaris [35] = assay: Diuretic effect in mongrel dog assessed as urinary excretion of Cl- at 1 mg/kg, po after 6 hrs (reference value: 0.17 +/- 0.09 mequiv/kg); type: functional, Canis lupus familiaris, Urine
Canis familiaris [36] = assay: Diuretic effect in mongrel dog assessed as urinary excretion of Cl- at 0.25 mg/kg, iv after 3 hrs (reference value: 0.08 +/- 0.02 mequiv/kg)
Canis familiaris [37] = assay: Diuretic effect in mongrel dog assessed as urinary excretion of water at 0.25 mg/kg, po after 3 hrs (reference value: 0.93 +/- 0.35 ml/kg); type: functional, Canis lupus familiaris, Urine
Canis familiaris [38] = assay: Diuretic effect in mongrel dog assessed as urinary excretion of Na+ at 0.25 mg/kg, po after 3 hrs (reference value: 0.10 +/- 0.02 mequiv/kg); type: functional, Canis lupus familiaris, Urine
Canis familiaris [39] = assay: Diuretic effect in mongrel dog assessed as urinary excretion of K+ at 0.25 mg/kg, po after 3 hrs (reference value: 0.16 +/- 0.01 mequiv/kg); type: functional, Canis lupus familiaris, Urine
Canis familiaris [40] = assay: Diuretic effect in mongrel dog assessed as urinary excretion of Cl- at 0.25 mg/kg, po after 3 hrs (reference value: 0.08 +/- 0.02 mequiv/kg); type: functional, Canis lupus familiaris, Urine
Canis familiaris [41] = assay: Diuretic effect in mongrel dog assessed as urinary excretion of Cl- at 1 mg/kg, po after 3 hrs (reference value: 0.08 +/- 0.02 mequiv/kg)

CCCCNc1cc(C(=O)O)cc(S(N)(=O)=O)c1Oc1ccccc1 [BUMETANIDE] was tested, and the Activity (Canis familiaris [1]) was 39 mL/kg, the Activity (Canis familiaris [2]) was 26 mL/kg and the Activity (Canis familiaris [3]) was 4 milliequivalent/kg. It also gave an Activity (Canis familiaris [4]) of 2.4 milliequivalent/kg, an Activity (Canis familiaris [5]) of 0.84 milliequivalent/kg and an Activity (Canis familiaris [6]) of 0.44 milliequivalent/kg. The Activity (Canis familiaris [7]) was 5.7 milliequivalent/kg, the Activity (Canis familiaris [8]) was 3.5 milliequivalent/kg and the Activity (Canis familiaris [9]) was 0.92 milliequivalent/kg. The Activity (Canis familiaris [10]) was 0.27 milliequivalent/kg, the Activity (Canis familiaris [11]) was 1.4 milliequivalent/kg and the Activity (Canis familiaris [12]) was 10 mL/kg.

O=CNc1cc(C(=O)O)cc(OCc2ccccc2)c1C(=O)c1ccccc1 gave an Activity (Canis familiaris [13]) of 9 mL/kg, an Activity (Canis familiaris [2]) of 9 mL/kg and an Activity (Canis familiaris [14]) of 21 mL/kg. The Activity (Canis familiaris [15]) was 3.1 milliequivalent/kg, the Activity (Canis familiaris [16]) was 1.1 milliequivalent/kg and the Activity (Canis familiaris [4]) was 1 milliequivalent/kg. It also gave an Activity (Canis familiaris [17]) of 2.2 milliequivalent/kg, an Activity (Canis familiaris [18]) of 2.5 milliequivalent/kg and an Activity (Canis familiaris [19]) of 0.49 milliequivalent/kg. The Activity (Canis familiaris [6]) was 0.24 milliequivalent/kg, the Activity (Canis familiaris [20]) was 0.63 milliequivalent/kg and the Activity (Canis familiaris [21]) was 3.1 milliequivalent/kg. The Activity (Canis familiaris [8]) was 1.3 milliequivalent/kg, the Activity (Canis familiaris [22]) was 4.5 milliequivalent/kg and the Activity (Canis familiaris [23]) was 21 mL/kg. It also gave an Activity (Canis familiaris [24]) of 33 mL/kg, an Activity (Canis familiaris [25]) of 22 mL/kg and an Activity (Canis familiaris [26]) of 18 mL/kg. For the same compound, the Activity (Canis familiaris [27]) was 2.5 milliequivalent/kg, the Activity (Canis familiaris [28]) was 2.1 milliequivalent/kg and the Activity (Canis familiaris [29]) was 0.51 milliequivalent/kg. The Activity (Canis familiaris [30]) was 1.09 milliequivalent/kg, the Activity (Canis familiaris [31]) was 0.49 milliequivalent/kg and the Activity (Canis familiaris [32]) was 0.41 milliequivalent/kg. It also gave an Activity (Canis familiaris [33]) of 3.3 milliequivalent/kg, an Activity (Canis familiaris [34]) of 4.5 milliequivalent/kg and an Activity (Canis familiaris [35]) of 3.3 milliequivalent/kg. For the same compound, the Activity (Canis familiaris [36]) was 2.6 milliequivalent/kg.

With CCCCSc1cc(C(=O)O)cc(NC=O)c1C(=O)c1ccccc1 the Activity (Canis familiaris [13]) was 21 mL/kg, the Activity (Canis familiaris [16]) was 2.3 milliequivalent/kg and the Activity (Canis familiaris [19]) was 0.65 milliequivalent/kg. It also gave an Activity (Canis familiaris [37]) of 17 mL/kg, an Activity (Canis familiaris [38]) of 0.5 milliequivalent/kg and an Activity (Canis familiaris [39]) of 0.28 milliequivalent/kg. For the same compound, the Activity (Canis familiaris [40]) was 0.6 milliequivalent/kg and the Activity (Canis familiaris [41]) was 2.1 milliequivalent/kg.
